The values that follow come from patent US20180099931A1 (AbbVie S.à.r.l., priority 2016, published 2018).

Like-named read-outs stand apart in the source and are kept apart here. Some results are limits rather than exact numbers.

The experiment deals with T1, F508delCFTR (Homo sapiens, UniProt P13569, DEL508-508).
T1 construct: expressed in transfected cells; host or cells: CFBE41o- human lung-derived epithelial cells (CFBE4lo-F508delCFTR-HRP), doxycycline-inducible
The experiment is described as follows: Cell Surface Expression-Horse Radish Peroxidase (CSE-HRP) Assay.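 On Maximum % activity (with co-corrector): co-corrector and positive control are both the same reference corrector at 2 µM.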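 On Maximum % activity (without co-corrector): percent of the 2 µM on-plate positive control corrector response above DMSO.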 The settings on record: for Maximum % activity (with co-corrector) / Emax: maximum at any tested concentration, normalized to on-plate positive control; for Emax: read-out: Maximum % activity (without co-corrector). Format: cell-based.

Where [1] appears, read: CSE-HRP, test compound without co-corrector, read-out: EC50 (without co-corrector).
[2] abbreviates: CSE-HRP, with co-corrector (2 μM of 3-[(2R,4R)-4-({[1-(2,2-difluoro-1,3-benzodioxol-5-yl)cyclopropyl]carbonyl}amino)-7-methoxy-3,4-dihydro-2H-chromen-2-yl]benzoic acid), read-out: EC50 (with co-corrector).
The mark [3] stands for this setting: CSE-HRP, with co-corrector (2 μM).
Setting [4] is: test compound without co-corrector.
Setting [5] is: test compound without co-corrector, read-out: EC50 (without co-corrector).
Where [6] appears, read: with co-corrector (2 μM of 3-[(2R,4R)-4-({[1-(2,2-difluoro-1,3-benzodioxol-5-yl)cyclopropyl]carbonyl}amino)-7-methoxy-3,4-dihydro-2H-chromen-2-yl]benzoic acid), read-out: EC50 (with co-corrector).
Where [7] appears, read: with co-corrector (2 μM of 3-[(2R,4R)-4-({[1-(2,2-difluoro-1,3-benzodioxol-5-yl)cyclopropyl]carbonyl}amino)-7-methoxy-3,4-dihydro-2H-chromen-2-yl]benzoic acid).

T1 sequence (P13569 with tags, fused parts or gaps DEL508-508): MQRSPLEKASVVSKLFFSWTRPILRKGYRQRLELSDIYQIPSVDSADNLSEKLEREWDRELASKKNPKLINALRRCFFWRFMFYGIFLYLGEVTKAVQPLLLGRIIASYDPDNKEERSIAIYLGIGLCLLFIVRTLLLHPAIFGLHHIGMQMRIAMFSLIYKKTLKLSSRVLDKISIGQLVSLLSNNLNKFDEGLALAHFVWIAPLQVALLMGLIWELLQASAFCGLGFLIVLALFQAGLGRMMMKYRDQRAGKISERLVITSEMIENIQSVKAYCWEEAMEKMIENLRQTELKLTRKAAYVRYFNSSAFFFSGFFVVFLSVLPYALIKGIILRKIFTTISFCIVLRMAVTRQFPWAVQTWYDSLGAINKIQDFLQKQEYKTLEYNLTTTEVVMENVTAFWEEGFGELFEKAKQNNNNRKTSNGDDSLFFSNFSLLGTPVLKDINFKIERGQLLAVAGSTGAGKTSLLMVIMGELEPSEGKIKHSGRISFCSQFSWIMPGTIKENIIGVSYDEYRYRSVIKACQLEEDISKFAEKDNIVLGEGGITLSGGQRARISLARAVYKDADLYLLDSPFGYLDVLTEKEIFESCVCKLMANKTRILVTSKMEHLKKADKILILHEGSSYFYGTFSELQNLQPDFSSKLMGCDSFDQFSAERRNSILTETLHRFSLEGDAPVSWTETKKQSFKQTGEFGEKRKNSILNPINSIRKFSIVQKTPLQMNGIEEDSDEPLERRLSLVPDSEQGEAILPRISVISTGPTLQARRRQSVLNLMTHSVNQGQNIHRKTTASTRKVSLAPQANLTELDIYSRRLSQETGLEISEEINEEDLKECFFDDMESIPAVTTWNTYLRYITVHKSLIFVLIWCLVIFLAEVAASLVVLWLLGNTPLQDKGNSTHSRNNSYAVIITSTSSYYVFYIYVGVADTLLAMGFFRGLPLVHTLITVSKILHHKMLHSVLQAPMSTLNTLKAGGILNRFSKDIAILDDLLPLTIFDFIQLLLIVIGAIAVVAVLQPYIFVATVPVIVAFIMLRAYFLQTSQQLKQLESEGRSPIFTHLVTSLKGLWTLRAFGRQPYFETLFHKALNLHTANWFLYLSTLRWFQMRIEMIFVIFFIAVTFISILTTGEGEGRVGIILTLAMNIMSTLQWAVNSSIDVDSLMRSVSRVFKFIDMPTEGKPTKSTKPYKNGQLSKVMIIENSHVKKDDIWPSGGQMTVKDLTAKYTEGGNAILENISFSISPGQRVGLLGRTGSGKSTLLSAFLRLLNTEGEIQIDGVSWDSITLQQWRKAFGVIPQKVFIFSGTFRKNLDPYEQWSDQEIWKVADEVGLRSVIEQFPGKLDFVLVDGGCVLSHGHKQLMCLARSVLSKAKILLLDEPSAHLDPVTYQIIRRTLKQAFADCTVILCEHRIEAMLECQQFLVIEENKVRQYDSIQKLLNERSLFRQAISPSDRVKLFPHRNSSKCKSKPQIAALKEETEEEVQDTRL

As to `COc1ccc(C2(C)CCC2)cc1CN[C@H]1[C@H](C(C)(C)C)[C@@H](C(=O)O)N(C(=O)C2CCC2)[C@H]1c1ccccc1C(F)(F)F` [Example I-279], the EC50 by setting is: under setting [1], 1000 to 10000 nM; under setting [2], 1000 to 10000 nM. In addition, the “Maximum % activity (with co-corrector)” value under setting [3] is given as “+++ (≥350)”. Moreover, the Emax (CSE-HRP, without co-corrector) is 100 to 200%.
Regarding `COc1ccc(C(C)(C)C)cc1CN[C@H]1[C@H](C(C)(C)C)[C@@H](C(=O)O)N(C(=O)C2CCCC(C)(C)C2)[C@H]1c1ccccc1` (some centres unmarked) [III-203], the Emax under setting [4] is > 200%. Moreover, the EC50 under setting [5] is < 1000 nM and the concentration giving a half-maximal response (EC50) under setting [6] is < 1000 nM. In addition, the “Maximum % activity (with co-corrector)” value (with co-corrector (2 μM)) is “+++ (≥350)”.
With `CCOC(=O)N1[C@H](C(=O)O)[C@@H](C(C)(C)C)[C@H](NCc2cc(C(F)(F)F)cnc2OC)[C@@H]1c1ccccc1C(C)C` [Example 97, (2S,3S,4S,5S)-3-tert-butyl-1-(ethoxycarbonyl)-4-({[2-methoxy-5-(trifluoromethyl)pyridin-3-yl]methyl}amino)-5-[2-(propan-2-yl)phenyl]pyrrolidine-2-carboxylic acid], the concentration for a half-maximal effect (EC50) under setting [5] is < 1000 nM and the EC50 under setting [6] is < 1000 nM. The “Maximum % activity (with co-corrector)” value (with co-corrector (2 μM)) is recorded as “+++ (≥350)”. In addition, the Emax (without co-corrector) was > 200%.
For the compound `COc1ncc(C2CCCCC2)cc1CN[C@H]1[C@H](C(C)(C)OC)[C@@H](C(=O)O)N(C(=O)C2CCCCC2)[C@H]1c1ccccc1` [II-252], the EC50 was < 1000 nM under setting [1] and < 1000 nM under setting [2]. Besides, the “Maximum % activity (with co-corrector)” value under setting [3] is “+++ (≥350)”. In addition, the Emax (CSE-HRP, without co-corrector) was > 200%.
`COc1ccc(C23CC(C2)C3)cc1CN[C@H]1[C@H](C(C)(C)C)[C@@H](C(=O)O)N(C(=O)[C@H]2CCCC(F)(F)C2)[C@H]1c1ccccc1` [II-509]: under setting [4], the Emax is > 200%. Also, the EC50 under setting [5] is < 1000 nM and the EC50 under setting [6] is < 1000 nM. Under setting [7], the “Maximum % activity (with co-corrector)” value is given as “+++ (≥350)”.
Consider `COc1ccc(C(C)(C)C)cc1CN[C@H]1[C@H](C(C)(C)OC)[C@@H](C(=O)O)N(C(=O)C2CCCCC2)[C@H]1c1cccnc1N(C)C` [Example 41, (2S,3S,4S,5S)-4-{[(5-tert-butyl-2-methoxyphenyl)methyl]amino}-1-(cyclohexanecarbonyl)-5-[2-(dimethylamino)pyridin-3-yl]-3-(2-methoxypropan-2-yl)pyrrolidine-2-carboxylic acid], for which the EC50 was 1000 to 10000 nM under setting [5] and < 1000 nM under setting [6]. Moreover, the “Maximum % activity (with co-corrector)” value (with co-corrector (2 μM)) was “+++ (≥350)”. Moreover, under “without co-corrector”, the Emax was > 200%.
`COc1ccc(C2(C)CCC2)cc1CN[C@H]1[C@H](C(C)(C)C)[C@@H](C(=O)O)N(C(=O)[C@@H]2CCCCO2)[C@H]1c1cccnc1OC` [III-233]: the Emax under setting [4] was > 200%. For the same compound, the concentration for a half-maximal effect (EC50) runs as follows: under setting [5], 1000 to 10000 nM; under setting [6], 1000 to 10000 nM. For the setting “with co-corrector (2 μM)”, the “Maximum % activity (with co-corrector)” value is recorded as “+++ (≥350)”.
As to `COc1ccc(C(F)(F)F)cc1C(C)N[C@@H]1[C@@H](C(C)(C)C)[C@H](C(=O)O)N(C(=O)C2CCCCC2)[C@@H]1c1ccccc1` (mixture of isomers) [Example I-8], the EC50 was 1000 to 10000 nM under setting [5] and 1000 to 10000 nM under setting [6]. Also, where the note is “with co-corrector (2 μM)”, the “Maximum % activity (with co-corrector)” value is “++ (≥150 and <350)”. In addition, under “without co-corrector”, the Emax is < 100%.
Take `COc1ccc(C(F)(F)F)cc1CN[C@H]1[C@H](C(C)(C)C)[C@@H](C(=O)O)N(C(=O)[C@H](OC)c2ccccc2)[C@H]1c1ccccc1N(C)C` [II-62]: the EC50 by setting is: under setting [1], 1000 to 10000 nM; under setting [2], 1000 to 10000 nM. Also, under setting [3], the “Maximum % activity (with co-corrector)” value is listed as “+++ (≥350)”. Moreover, under “CSE-HRP, without co-corrector”, the Emax is > 200%.
Consider `Cc1cc(C(F)(F)F)cc(N[C@H]2[C@H](C(C)(C)C)[C@@H](C(=O)O)N(C(=O)OC(C)C)[C@H]2c2ccccc2C(C)C)n1` [Example 82, (2S,3S,4S,5S)-3-tert-butyl-4-{[6-methyl-4-(trifluoromethyl)pyridin-2-yl]amino}-1-{[(propan-2-yl)oxy]carbonyl}-5-[2-(propan-2-yl)phenyl]pyrrolidine-2-carboxylic acid], for which the EC50 lay within 1000 to 10000 nM under setting [5] and 1000 to 10000 nM under setting [6]. Also, the “Maximum % activity (with co-corrector)” value (with co-corrector (2 μM)) is “++ (≥150 and <350)”. The Emax (without co-corrector) is < 100%.
Regarding `Cc1cc(C(F)(F)F)cc(N[C@@H]2[C@@H](C(C)(C)C)[C@H](C(=O)NS(C)(=O)=O)N(C(=O)C3CCCCC3)[C@@H]2c2ccccc2)n1` (racemic) [III-56], the Emax under setting [4] was < 100%. In addition, the EC50 runs as follows: under setting [5], > 10000 nM; under setting [6], 1000 to 10000 nM. Besides, the “Maximum % activity (with co-corrector)” value under setting [7] is “++ (≥150 and <350)”.
Consider `COc1ccc(C#N)cc1CN[C@@H]1[C@@H](C(C)(C)C)[C@H](C(=O)O)N(C(=O)C2CCCCC2)[C@@H]1c1ccccc1` (racemic) [II-71], for which the concentration for a half-maximal effect (EC50) lay within 1000 to 10000 nM under setting [1] and 1000 to 10000 nM under setting [2]. Under setting [3], the “Maximum % activity (with co-corrector)” value was “++ (≥150 and <350)”. Also, the Emax (CSE-HRP, without co-corrector) was < 100%.
As to `COc1nc(C(F)(F)F)ccc1CN[C@@H]1[C@@H](C(C)(C)C)[C@H](C(=O)O)N(C(=O)C2CCCCC2)[C@@H]1c1ccccc1` (racemic) [II-77], the EC50 under setting [1] was 1000 to 10000 nM and the EC50 under setting [2] lay within 1000 to 10000 nM. For the same compound, the “Maximum % activity (with co-corrector)” value under setting [3] is listed as “+++ (≥350)”. Where the note is “CSE-HRP, without co-corrector”, the Emax is 100 to 200%.
Regarding `COc1cc(C(C)(C)C)ccc1CN[C@H]1[C@H](C(C)(C)C)[C@@H](C(=O)O)N(C(=O)C2CCCCC2)[C@H]1c1cccnc1N(C)C` [II-102], the concentration for a half-maximal effect (EC50) was 1000 to 10000 nM under setting [1] and < 1000 nM under setting [2]. The “Maximum % activity (with co-corrector)” value under setting [3] was “+++ (≥350)”. For the same compound, under “CSE-HRP, without co-corrector”, the Emax lay in the range of 100 to 200%.
`COc1ccc(C(C)(C)C)cc1CN[C@H]1[C@H](C(C)(C)C)[C@@H](C(=O)O)N(C(=O)[C@@H](C)Oc2ccccc2)[C@H]1c1ccccc1` [Example I-137]: the concentration for a half-maximal effect (EC50) runs as follows: under setting [5], 1000 to 10000 nM; under setting [6], 1000 to 10000 nM. Moreover, the “Maximum % activity (with co-corrector)” value (with co-corrector (2 μM)) is “+++ (≥350)”. Besides, the Emax (without co-corrector) was > 200%.
For `CC[C@H](C(=O)N1[C@H](C(=O)O)[C@@H](C(C)(C)C)[C@H](NCc2cc(C(C)(C)C)ccc2OC)[C@@H]1c1cccnc1OC)c1ccccc1` [Example I-253], the EC50 is 1000 to 10000 nM under setting [1] and 1000 to 10000 nM under setting [2]. Moreover, the “Maximum % activity (with co-corrector)” value under setting [3] is recorded as “+++ (≥350)”. For the same compound, the Emax (CSE-HRP, without co-corrector) is 100 to 200%.
For the compound `COc1ncc(C(F)(F)F)cc1N[C@H]1[C@H](C(C)(C)C)[C@@H](C(=O)O)N(C(=O)[C@@H]2CCCCO2)[C@H]1c1cccnc1N(C)C` [Example I-215], the concentration giving a half-maximal response (EC50) by setting is: under setting [5], > 10000 nM; under setting [6], 1000 to 10000 nM. Also, the “Maximum % activity (with co-corrector)” value (with co-corrector (2 μM)) was “++ (≥150 and <350)”. For the same compound, the Emax (without co-corrector) is < 100%.
Take `COc1ccc(C(C)(C)C)cc1CN[C@H]1[C@H](C(C)(C)C)[C@@H](C(=O)O)N(C(=O)C2CC(C)(C)OC(C)(C)C2)[C@H]1c1ccccc1` [Example 54, (2S,3S,4S,5S)-3-tert-butyl-4-{[(5-tert-butyl-2-methoxyphenyl)methyl]amino}-5-phenyl-1-(2,2,6,6-tetramethyloxane-4-carbonyl)pyrrolidine-2-carboxylic acid]: the EC50 reads like this: under setting [5], 1000 to 10000 nM; under setting [6], < 1000 nM. For the same compound, the “Maximum % activity (with co-corrector)” value (with co-corrector (2 μM)) is recorded as “+++ (≥350)”. Also, the Emax (without co-corrector) is > 200%.
With `COc1ccc(S(C)(=O)=O)cc1CN[C@@H]1[C@@H](C(C)(C)C)[C@H](C(=O)O)N(C(=O)C2CCCCC2)[C@@H]1c1ccccc1` (racemic) [Example I-30], the EC50 is > 10000 nM under setting [5] and > 10000 nM under setting [6]. The “Maximum % activity (with co-corrector)” value (with co-corrector (2 μM)) is given as “+ (<150)”. Under “without co-corrector”, the Emax was < 100%.
`CC(C)OC(=O)N1[C@H](C(=O)O)[C@@H](C(C)(C)C)[C@H](NCC2CCCN(C(=O)OCc3ccccc3)C2)[C@@H]1c1ccccc1` (some centres unmarked) [II-583]: the Emax under setting [4] fell in the range of 100 to 200%. In addition, the EC50 runs as follows: under setting [5], 1000 to 10000 nM; under setting [6], 1000 to 10000 nM. Also, the “Maximum % activity (with co-corrector)” value under setting [7] is “+++ (≥350)”.
Consider `COc1ccc(C(C)(C)C)cc1CN[C@H]1[C@H](C(C)(C)C)[C@@H](C(=O)O)N(C(=O)[C@@H]2[C@@H](C(F)(F)F)[C@@H]3CC[C@H]2O3)[C@H]1c1ccccc1` (relative stereo) [II-505], for which the Emax under setting [4] was > 200%. Moreover, the EC50 by setting is: under setting [5], 1000 to 10000 nM; under setting [6], < 1000 nM. Under setting [7], the “Maximum % activity (with co-corrector)” value was “+++ (≥350)”.
For the compound `COc1ccc(C(C)(C)C)cc1CN[C@H]1[C@H](C(C)(C)C)[C@@H](C(=O)O)N(C(=O)[C@@H]2CCCCO2)[C@H]1c1cccnc1N(C)C` [Example 18, (2S,3S,4S,5S)-3-tert-butyl-4-{[(5-tert-butyl-2-methoxyphenyl)methyl]amino}-5-[2-(dimethylamino)pyridin-3-yl]-1-[(2S)-oxane-2-carbonyl]pyrrolidine-2-carboxylic acid], the half-maximal effective concentration (EC50) reads like this: under setting [5], 1000 to 10000 nM; under setting [6], 1000 to 10000 nM. For the same compound, the “Maximum % activity (with co-corrector)” value (with co-corrector (2 μM)) is listed as “+++ (≥350)”. Also, under “without co-corrector”, the Emax is > 200%.
Regarding `COc1ccc(C(C)(C)C)cc1CN[C@H]1[C@H](C(C)(C)C)[C@@H](C(=O)O)N(C(=O)Cc2cc(F)cc(F)c2)[C@H]1c1ccccc1` [II-200], the EC50 reads like this: under setting [1], 1000 to 10000 nM; under setting [2], < 1000 nM. Under setting [3], the “Maximum % activity (with co-corrector)” value was “+++ (≥350)”. Under “CSE-HRP, without co-corrector”, the Emax is 100 to 200%.

For orientation: EC50 means the concentration that produces a half-maximal response.
